From the SangsterLogP compilation

Assay: method code SF-AS, from PMID: 6686445
Settings: pH 7.4

**Q.** For `O=C1CN=C(c2ccccc2)c2cc([N+](=O)[O-])ccc2N1CC(O)CO` (stereo not given), which logD is on record?
**A.** Its logD is 0.96.

**Q.** For `C[C@@H]1N=C(c2ccccc2Cl)c2cc([N+](=O)[O-])ccc2NC1=O`, which logD is on record?
**A.** Its logD is 2.72.

**Q.** With `COc1cccc(C2=NCC(=O)Nc3ccc(Cl)cc32)c1` as the compound, how does the logD read?
**A.** Its logD is 3.14.

**Q.** With `COc1ccc(C2=NCC(=O)N(C)c3ccc(Cl)cc32)cc1` as the compound, how does the logD read?
**A.** The logD was 3.15.

**Q.** Which logD does the source give for `CN1C(=O)CN=C(c2ccccc2Cl)c2cc(Cl)ccc21` here?
**A.** The logD was 3.12.

**Q.** With `COCN1C(=O)CN=C(c2ccccc2)c2cc([N+](=O)[O-])ccc21` as the compound, how does the logD read?
**A.** The logD was 2.05.

**Q.** Which logD does the source give for `Cc1ccccc1C1=NCC(=O)N(C)c2ccc(Cl)cc21` here?
**A.** The logD was 3.03.

**Q.** With `O=C1CN=C(c2ccccc2)c2cc(F)ccc2N1` as the compound, how does the logD read?
**A.** Its logD is 2.32.

**Q.** With `CSc1ccccc1C1=NCC(=O)Nc2ccc(Cl)cc21` as the compound, how does the logD read?
**A.** Its logD is 2.99.

**Q.** Which logD does the source give for `CSc1ccc2c(c1)C(c1ccccc1)=NCC(=O)N2C` here?
**A.** The logD was 2.95.

**Q.** Which logD does the source give for `O=C1CN=C(c2ccccc2)c2cc(C(F)(F)F)ccc2N1` here?
**A.** Its logD is 3.1.

**Q.** Which logD does the source give for `CN1C(=O)CN=C(c2c(Cl)cccc2Cl)c2cc(Cl)ccc21` here?
**A.** Its logD is 3.04.

**Q.** For `O=C1CN=C(c2ccccc2C(F)(F)F)c2ccccc2N1`, which logD is on record?
**A.** Its logD is 2.47.

**Q.** Which logD does the source give for `CC(=O)c1ccc2c(c1)C(c1ccccc1F)=NCC(=O)N2` here?
**A.** The logD was 1.75.

**Q.** For `O=C1CN=C(c2c(F)cccc2F)c2ccc(Cl)cc2N1`, which logD is on record?
**A.** The logD was 2.88.

**Q.** Which logD does the source give for `O=C1CN=C(c2ccccc2F)c2cc([N+](=O)[O-])ccc2N1` here?
**A.** The logD was 2.15.

**Q.** For `O=C1CN=C(c2ccc(F)cc2)c2cc(Cl)ccc2N1`, which logD is on record?
**A.** Its logD is 2.9.

**Q.** Which logD does the source give for `CSCN1C(=O)CN=C(c2ccccc2)c2cc(Cl)ccc21` here?
**A.** The logD was 3.32.

**Q.** Which logD does the source give for `CCc1ccc2c(c1)C(c1ccccc1F)=NCC(=O)N2` here?
**A.** The logD was 2.92.

**Q.** Which logD does the source give for `CN1C(=O)CN=C(c2ccccc2F)c2cc(N)ccc21` here?
**A.** Its logD is 1.3.

**Q.** Which logD does the source give for `N#Cc1ccc2c(c1)C(c1ccccc1)=NCC(=O)N2` here?
**A.** Its logD is 1.82.

**Q.** With `O=C1CN=C(c2ccccc2C(F)(F)F)c2cc([N+](=O)[O-])ccc2N1` as the compound, how does the logD read?
**A.** The logD was 2.51.

**Q.** With `CN1C(=O)CN=C(c2ccccc2F)c2cc(Cl)ccc21` as the compound, how does the logD read?
**A.** Its logD is 2.75.

**Q.** Which logD does the source give for `O=C1CN=C(c2ccccc2)c2ccccc2N1` here?
**A.** The logD was 2.18.

**Q.** For `COCN1C(=O)C(O)N=C(c2ccccc2)c2cc(N)ccc21` (stereo not given), which logD is on record?
**A.** The logD was 0.75.

**Q.** With `O=C1CN=C(c2ccccc2F)c2ccccc2N1` as the compound, how does the logD read?
**A.** Its logD is 2.38.

**Q.** With `O=C1CN=C(c2ccccc2Br)c2cc(Cl)ccc2N1` as the compound, how does the logD read?
**A.** The logD was 3.17.

**Q.** For `COCN1C(=O)CN=C(c2ccccc2)c2cc(Cl)ccc21`, which logD is on record?
**A.** Its logD is 2.86.

**Q.** Which logD does the source give for `Cc1ccccc1C1=NCC(=O)Nc2ccc(Cl)cc21` here?
**A.** Its logD is 3.12.

**Q.** Which logD does the source give for `O=C1CN=C(c2ccccc2F)c2cc(Cl)ccc2N1` here?
**A.** Its logD is 2.7.

**Q.** For `CCN1C(=O)CN=C(c2ccccc2)c2cc(Cl)ccc21`, which logD is on record?
**A.** Its logD is 3.21.

**Q.** For `O=C1CN=C(c2ccc(C(F)(F)F)cc2)c2ccccc2N1`, which logD is on record?
**A.** The logD was 3.34.

**Q.** Which logD does the source give for `CCN1C(=O)CN=C(c2ccccc2)c2cc(N)ccc21` here?
**A.** The logD was 1.81.

**Q.** With `Cc1ccc2c(c1)C(c1ccccc1)=NCC(=O)N2` as the compound, how does the logD read?
**A.** The logD was 2.62.

**Q.** With `CN1C(=O)CN=C(c2ccc(Cl)cc2)c2cc(F)ccc21` as the compound, how does the logD read?
**A.** The logD was 3.1.

**Q.** Which logD does the source give for `CSCN1C(=O)CN=C(c2ccccc2)c2cc(N)ccc21` here?
**A.** Its logD is 1.92.

**Q.** Which logD does the source give for `O=C1CN=C(c2ccccc2F)c2cc(Cl)c(Cl)cc2N1` here?
**A.** Its logD is 3.63.

**Q.** Which logD does the source give for `O=C1CN=C(c2ccccc2F)c2cc(Cl)ccc2N1CC(O)CO` (stereo not given) here?
**A.** The logD was 1.51.

**Q.** Which logD does the source give for `COc1ccccc1C1=NCC(=O)Nc2ccc(Cl)cc21` here?
**A.** The logD was 2.63.

**Q.** Which logD does the source give for `O=C1CN=C(c2ccccc2[N+](=O)[O-])c2cc([N+](=O)[O-])ccc2N1` here?
**A.** Its logD is 1.61.

**Q.** With `COc1ccc2c(c1)C(c1ccccc1)=NCC(=O)N2` as the compound, how does the logD read?
**A.** Its logD is 2.24.

**Q.** For `COCN1C(=O)CN=C(c2ccccc2Cl)c2cc(Cl)ccc21`, which logD is on record?
**A.** Its logD is 3.23.

**Q.** With `CC1N=C(c2ccccc2Cl)c2cc(Cl)ccc2N(C)C1=O` (stereo not given) as the compound, how does the logD read?
**A.** The logD was 3.4.

**Q.** Which logD does the source give for `O=C1CN=C(c2cccc(C(F)(F)F)c2)c2ccccc2N1` here?
**A.** Its logD is 3.19.

**Q.** With `COCN1C(=O)CN=C(c2ccccc2)c2cc(N)ccc21` as the compound, how does the logD read?
**A.** Its logD is 1.32.

**Q.** With `CN1C(=O)CN=C(c2ccccc2)c2cc(N)ccc21` as the compound, how does the logD read?
**A.** Its logD is 1.46.

**Q.** Which logD does the source give for `CN1C(=O)CN=C(c2ccccc2F)c2cc(I)ccc21` here?
**A.** The logD was 3.14.

**Q.** With `COCN1C(=O)CN=C(c2ccccc2F)c2cc(N)ccc21` as the compound, how does the logD read?
**A.** Its logD is 1.31.

**Q.** Which logD does the source give for `O=C1CN=C(c2ccccc2Cl)c2cc(Cl)ccc2N1` here?
**A.** The logD was 3.15.

**Q.** With `O=C1CN=C(c2c(F)cccc2F)c2cc(Cl)ccc2N1` as the compound, how does the logD read?
**A.** The logD was 2.68.
